The values that follow come from ChEMBL document CHEMBL1817568, “Novel hybrids of fluconazole and furanones: design, synthesis and antifungal activity” (2011).

Molecules are shown by their SMILES. ≈ marks a conversion by molar mass, not a printed value. Calls of active or inactive are those of the source. The calls are words filed in the database; no cut-off is given here.

For test [1], the system named is Candida albicans. The test can be described thus: Antifungal activity against Candida albicans ATCC 24433 at 4 ug/ml by broth dilution method. In kind it is functional, organism-based. (Broth dilution looks for growth in wells or tubes with falling amounts of substance.)
In test [2] the test system is Nakaseomyces glabratus. Briefly: Antifungal activity against Candida glabrata ATCC 90030 at 4 ug/ml by broth dilution method. In kind it is functional, organism-based.
Test [3] relates to Pichia kudriavzevii. The test can be described thus: Antifungal activity against Candida krusei ATCC 6258 at 4 ug/ml by broth dilution method. In kind it is functional, organism-based.
In test [4] the test system is Candida tropicalis. The test can be described thus: Antifungal activity against Candida tropicalis ATCC 750 at 4 ug/ml by broth dilution method. The class given is functional, organism-based.
The test system of test [5] is Cryptococcus neoformans. The test can be described thus: Antifungal activity against Cryptococcus neoformans ATCC 34664 at 4 ug/ml by broth dilution method. In kind it is functional, organism-based.
In test [6] the test system is Aspergillus niger. Briefly: Antifungal activity against Aspergillus niger ATCC 16404 at 4 ug/ml by broth dilution method. In kind it is functional, organism-based.
Test [7] deals with Aspergillus fumigatus. Briefly: Antifungal activity against Aspergillus fumigatus ATCC 46645 at 4 ug/ml by broth dilution method. In kind it is functional, organism-based.
Test [8] deals with Fusarium proliferatum. Briefly: Antifungal activity against Fusarium proliferatum ATCC 10052 at 4 ug/ml by broth dilution method. The class given is functional, organism-based.
Test [9] has as its system Candida albicans. The test can be described thus: Antifungal activity against Candida albicans ATCC 24433 at 8 ug/ml by broth dilution method. The class given is functional, organism-based.
Test [10] relates to Nakaseomyces glabratus. The test can be described thus: Antifungal activity against Candida glabrata ATCC 90030 at 8 ug/ml by broth dilution method. The class given is functional, organism-based.
The subject of test [11] is Pichia kudriavzevii. Briefly: Antifungal activity against Candida krusei ATCC 6258 at 8 ug/ml by broth dilution method. The class given is functional, organism-based.
The test system of test [12] is Cryptococcus neoformans. The test can be described thus: Antifungal activity against Cryptococcus neoformans ATCC 34664 at 8 ug/ml by broth dilution method. In kind it is functional, organism-based.
The test system of test [13] is Aspergillus niger. Briefly: Antifungal activity against Aspergillus niger ATCC 16404 at 8 ug/ml by broth dilution method. In kind it is functional, organism-based.
The test system of test [14] is Aspergillus fumigatus. The test can be described thus: Antifungal activity against Aspergillus fumigatus ATCC 46645 at 8 ug/ml by broth dilution method. In kind it is functional, organism-based.
The test system of test [15] is Fusarium proliferatum. Briefly: Antifungal activity against Fusarium proliferatum ATCC 10052 at 8 ug/ml by broth dilution method. In kind it is functional, organism-based.
In test [16] the test system is Candida albicans. Briefly: Antifungal activity against Candida albicans ATCC 24433 by broth dilution method. The class given is functional.
The test system of test [17] is Nakaseomyces glabratus. Briefly: Antifungal activity against Candida glabrata ATCC 90030 by broth dilution method. The class given is functional.
Test [18] concerns Candida tropicalis. The test can be described thus: Antifungal activity against Candida tropicalis ATCC 750 by broth dilution method. The class given is functional.
In test [19] the test system is Cryptococcus neoformans. The test can be described thus: Antifungal activity against Cryptococcus neoformans ATCC 34664 by broth dilution method. The class given is functional.
For test [20], the system named is Pichia kudriavzevii. The test can be described thus: Antifungal activity against Candida krusei ATCC 6258 at 16 ug/ml by broth dilution method. In kind it is functional, organism-based.
In test [21] the test system is Pichia kudriavzevii. The test can be described thus: Antifungal activity against Candida krusei ATCC 6258 at 128 ug/ml by broth dilution method. The class given is functional, organism-based.
The test system of test [22] is Aspergillus niger. Briefly: Antifungal activity against Aspergillus niger ATCC 16404 at 128 ug/ml by broth dilution method. In kind it is functional, organism-based.
The subject of test [23] is Aspergillus fumigatus. Briefly: Antifungal activity against Aspergillus fumigatus ATCC 46645 at 128 ug/ml by broth dilution method. In kind it is functional, organism-based.
Test [24] relates to Fusarium proliferatum. The test can be described thus: Antifungal activity against Fusarium proliferatum ATCC 10052 at 128 ug/ml by broth dilution method. The class given is functional, organism-based.
Test [25] concerns Candida tropicalis. Briefly: Antifungal activity against Candida tropicalis ATCC 750 at 128 ug/ml by broth dilution method. The class given is functional, organism-based.
Test [26] has as its system Cryptococcus neoformans. Briefly: Antifungal activity against Cryptococcus neoformans ATCC 34664 at 16 ug/ml by broth dilution method. The class given is functional, organism-based.
Test [27] has as its system Aspergillus niger. The test can be described thus: Antifungal activity against Aspergillus niger ATCC 16404 at 16 ug/ml by broth dilution method. The class given is functional, organism-based.
Test [28] relates to Aspergillus fumigatus. Briefly: Antifungal activity against Aspergillus fumigatus ATCC 46645 at 16 ug/ml by broth dilution method. The class given is functional, organism-based.
Test [29] deals with Fusarium proliferatum. The test can be described thus: Antifungal activity against Fusarium proliferatum ATCC 10052 at 16 ug/ml by broth dilution method. In kind it is functional, organism-based.

With `O=C1OCC(c2ccc(F)cc2F)=C1c1ccc(Cl)c(Cl)c1`, the result in [1], in test [2], in test [3], in test [4], in test [5] and in [6] was inactive. The outcome in [7] and in test [8] was inactive.
`O=C1OCC(c2ccc(F)cc2F)=C1c1ccc(Cl)cc1`: the result in test [9], in [10], in test [11], in test [12], in test [13] and in test [14] was inactive. Moreover, the result in test [15] was inactive.
As for `COc1ccc(C2=C(c3ccc(OCC(O)(Cn4cncn4)c4ccc(F)cc4F)cc3)C(=O)OC2)cc1` (racemic), the MIC50 (in general, an inhibitory concentration at the 50% level, which refers to growth in some studies and to a panel of isolates in others) amounted to 1 µg/mL (≈ 1.92 µM) in test [16], 1 µg/mL (≈ 1.92 µM) in [17], 4 µg/mL (≈ 7.7 µM) in test [18] and 2 µg/mL (≈ 3.85 µM) in test [19]. For the same molecule, the result in [11], in test [13], in [14] and in [15] was inactive.
For the molecule `COc1cc(C2=C(c3ccc(F)cc3)COC2=O)ccc1OCC(O)(Cn1cncn1)c1ccc(F)cc1F` (racemic), the MIC50 in test [16] was found to be 0.5 µg/mL (≈ 0.93 µM); in [17] it was 0.5 µg/mL (≈ 0.93 µM); in [18], 2 µg/mL (≈ 3.72 µM); in [19] it was 2 µg/mL (≈ 3.72 µM). Also, the result in test [20], in [13], in [14] and in [15] was inactive.
With `O=C1OCC(c2cccs2)=C1c1ccc(OCC(O)(Cn2cncn2)c2ccc(F)cc2F)cc1` (racemic), the MIC50 in test [16] is 0.5 µg/mL (≈ 1.01 µM); in test [17], 0.5 µg/mL (≈ 1.01 µM); in test [18], 2 µg/mL (≈ 4.04 µM). Further, the result in [11], in test [12], in test [13], in test [14] and in test [15] was inactive.
For `COc1cc(C=O)cc(OC)c1OCC(O)(Cn1cncn1)c1ccc(F)cc1F` (racemic), the MIC50 in test [16] was 1 µg/mL (≈ 2.38 µM); in test [17], 1 µg/mL (≈ 2.38 µM); in test [18], 64 µg/mL (≈ 153 µM); in test [19] it was 8 µg/mL (≈ 19.1 µM). Besides, the outcome in test [21], in test [22], in [23] and in test [24] was inactive.
Take `COc1ccc(C=O)cc1OCC(O)(Cn1cncn1)c1ccc(F)cc1F` (racemic): the MIC50 in [16] is 2 µg/mL (≈ 5.14 µM); in test [17], 2 µg/mL (≈ 5.14 µM); in [19], 16 µg/mL (≈ 41.1 µM). Moreover, the outcome in [21], in [25], in test [22], in test [23] and in test [24] was inactive.
Turning to `O=C1OC(c2ccccc2)=N/C1=C\c1ccc(OCC(O)(Cn2cncn2)c2ccc(F)cc2F)cc1` (racemic), the MIC50 in test [16] and in [17] was 4 µg/mL (≈ 7.96 µM) throughout. Also, the result in [3], in test [4], in test [5], in [6], in [7] and in [8] was inactive.
As to `O=C(O)Cc1ccc(OCC(O)(Cn2cncn2)c2ccc(F)cc2F)cc1` (racemic), the MIC50 in [16] turned out to be 8 µg/mL (≈ 20.5 µM); in test [17] it was 8 µg/mL (≈ 20.5 µM); in test [18], 64 µg/mL (≈ 164 µM); in [19] it was 64 µg/mL (≈ 164 µM). For the same molecule, the outcome in test [21], in test [22], in test [23] and in test [24] was inactive.
For `CC1OC(=O)C(c2ccc(OCC(O)(Cn3cncn3)c3ccc(F)cc3F)cc2)=C1c1ccc(F)cc1F` (racemic), the MIC50 was 1 µg/mL (≈ 1.85 µM) in test [16], 1 µg/mL (≈ 1.85 µM) in test [17], 8 µg/mL (≈ 14.8 µM) in test [18] and 4 µg/mL (≈ 7.41 µM) in test [19]. The outcome in [11], in test [13] and in test [14] was inactive.
Turning to `CC1(O)OC(=O)C(c2ccc(OCC(O)(Cn3cncn3)c3ccc(F)cc3F)cc2)=C1c1ccc(F)cc1F` (racemic), the MIC50 is 2 µg/mL (≈ 3.6 µM) in [16], 2 µg/mL (≈ 3.6 µM) in [17] and 8 µg/mL (≈ 14.4 µM) in [18]. The outcome in [20], in [26], in test [27], in test [28] and in test [29] was inactive.
As for `COc1cc(/C=C2\N=C(c3ccccc3)OC2=O)ccc1OCC(O)(Cn1cncn1)c1ccc(F)cc1F` (racemic), the outcome in [1], in test [2], in test [3], in test [4], in [5] and in test [6] was inactive. The outcome in test [7] and in [8] was inactive.
In the case of `COc1ccc(/C=C2\N=C(c3ccccc3)OC2=O)cc1OCC(O)(Cn1cncn1)c1ccc(F)cc1F` (racemic), the outcome in test [1], in [2], in test [3], in test [4], in test [5] and in test [6] was inactive. Besides, the result in [7] and in test [8] was inactive.
On to `COc1ccc(/C=C2\SC(=S)NC2=O)cc1OCC(O)(Cn1cncn1)c1ccc(F)cc1F` (racemic), for which the outcome in test [9], in test [10], in test [11], in test [12], in test [13] and in [14] was inactive. For the same molecule, the result in test [15] was inactive.
Take `O=C1O/C(=C\c2ccc(OCC(O)(Cn3cncn3)c3ccc(F)cc3F)cc2)C(c2ccc(F)cc2F)=C1c1ccc(Cl)c(Cl)c1` (racemic): the outcome in [1], in test [2], in [3], in test [4], in [5] and in [6] was inactive. Also, the result in test [7] and in test [8] was inactive.
As for `O=C1O/C(=C\c2ccc(OCC(O)(Cn3cncn3)c3ccc(F)cc3F)cc2)C(c2ccc(F)cc2F)=C1c1ccc(Cl)cc1` (racemic), the result in test [1], in test [2], in [3], in [4], in test [5] and in test [6] was inactive. The result in [7] and in test [8] was inactive.
